Measured values: patent US9580416B2, “Inhibitors of Bruton's tyrosine kinase” (PHARMACYCLICS LLC, priority 2014, dated 2017)

Assays:
Format in all cases: biochemical
Btk = Btk (Homo sapiens, UniProt Q06187); assay: Btk kinase activity, TR-FRET assay; settings: read-out: Btk (IC50)
In short: (§1)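 Enzyme (Btk 0.5 nM; Lck 6 nM) reacted 1 h with inhibitor, ATP at Km and biotin-peptide substrate in pH 7.4 buffer, 10% DMSO. Phosphopeptide detected by Eu-p-Tyr100 antibody plus streptavidin-APC (665/615 nm). IC50 calculated from fitted Ki(app) via ATP/Km correction plus half total enzyme.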

EGFR = EGFR (Homo sapiens, UniProt P00533); assay: Inhibition of a panel of kinases, in vitro HotSpot kinase assay: EGFR
Chain of EGFR (P00533 25-1210): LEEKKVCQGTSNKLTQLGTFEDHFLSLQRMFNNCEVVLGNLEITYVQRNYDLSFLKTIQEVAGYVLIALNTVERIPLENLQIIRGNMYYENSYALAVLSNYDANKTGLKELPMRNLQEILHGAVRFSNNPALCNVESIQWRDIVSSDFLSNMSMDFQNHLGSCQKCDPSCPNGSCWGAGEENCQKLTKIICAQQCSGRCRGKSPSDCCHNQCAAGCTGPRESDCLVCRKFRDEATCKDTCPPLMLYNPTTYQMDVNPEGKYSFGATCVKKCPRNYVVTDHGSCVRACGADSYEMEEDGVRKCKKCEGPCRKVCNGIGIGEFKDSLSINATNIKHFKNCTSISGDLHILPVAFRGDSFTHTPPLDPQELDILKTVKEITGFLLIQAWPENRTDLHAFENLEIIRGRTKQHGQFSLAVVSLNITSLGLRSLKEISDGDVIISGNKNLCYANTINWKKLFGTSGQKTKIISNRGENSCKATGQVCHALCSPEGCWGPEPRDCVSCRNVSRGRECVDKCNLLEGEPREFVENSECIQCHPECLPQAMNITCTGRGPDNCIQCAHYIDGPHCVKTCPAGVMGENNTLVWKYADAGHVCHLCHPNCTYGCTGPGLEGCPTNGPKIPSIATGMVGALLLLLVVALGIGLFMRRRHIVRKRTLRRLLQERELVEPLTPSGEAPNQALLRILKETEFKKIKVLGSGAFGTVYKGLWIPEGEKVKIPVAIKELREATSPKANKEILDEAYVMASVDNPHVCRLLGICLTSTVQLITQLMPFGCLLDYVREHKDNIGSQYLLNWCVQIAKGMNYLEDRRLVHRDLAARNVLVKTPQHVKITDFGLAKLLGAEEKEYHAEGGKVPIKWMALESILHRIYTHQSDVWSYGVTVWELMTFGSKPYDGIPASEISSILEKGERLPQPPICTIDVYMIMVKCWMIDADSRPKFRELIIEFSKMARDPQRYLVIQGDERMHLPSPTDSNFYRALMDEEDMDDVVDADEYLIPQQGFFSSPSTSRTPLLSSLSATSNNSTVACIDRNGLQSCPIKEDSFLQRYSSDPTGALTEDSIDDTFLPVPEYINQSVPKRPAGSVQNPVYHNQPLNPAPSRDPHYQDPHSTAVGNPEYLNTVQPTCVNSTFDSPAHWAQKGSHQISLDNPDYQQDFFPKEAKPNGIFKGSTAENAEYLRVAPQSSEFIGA
Experimental: (§2) The degree of inhibition of a panel of kinases is determined using the in vitro HotSpot kinase assay (purified enzymes, ^33P-ATP, an appropriate substrate and 1 uM ATP).

JAK3 = molecular target: T1, JAK3 (Homo sapiens, UniProt P52333); assay: Inhibition of a panel of kinases, in vitro HotSpot kinase assay: JAK3
T1 sequence (P52333 1-1124): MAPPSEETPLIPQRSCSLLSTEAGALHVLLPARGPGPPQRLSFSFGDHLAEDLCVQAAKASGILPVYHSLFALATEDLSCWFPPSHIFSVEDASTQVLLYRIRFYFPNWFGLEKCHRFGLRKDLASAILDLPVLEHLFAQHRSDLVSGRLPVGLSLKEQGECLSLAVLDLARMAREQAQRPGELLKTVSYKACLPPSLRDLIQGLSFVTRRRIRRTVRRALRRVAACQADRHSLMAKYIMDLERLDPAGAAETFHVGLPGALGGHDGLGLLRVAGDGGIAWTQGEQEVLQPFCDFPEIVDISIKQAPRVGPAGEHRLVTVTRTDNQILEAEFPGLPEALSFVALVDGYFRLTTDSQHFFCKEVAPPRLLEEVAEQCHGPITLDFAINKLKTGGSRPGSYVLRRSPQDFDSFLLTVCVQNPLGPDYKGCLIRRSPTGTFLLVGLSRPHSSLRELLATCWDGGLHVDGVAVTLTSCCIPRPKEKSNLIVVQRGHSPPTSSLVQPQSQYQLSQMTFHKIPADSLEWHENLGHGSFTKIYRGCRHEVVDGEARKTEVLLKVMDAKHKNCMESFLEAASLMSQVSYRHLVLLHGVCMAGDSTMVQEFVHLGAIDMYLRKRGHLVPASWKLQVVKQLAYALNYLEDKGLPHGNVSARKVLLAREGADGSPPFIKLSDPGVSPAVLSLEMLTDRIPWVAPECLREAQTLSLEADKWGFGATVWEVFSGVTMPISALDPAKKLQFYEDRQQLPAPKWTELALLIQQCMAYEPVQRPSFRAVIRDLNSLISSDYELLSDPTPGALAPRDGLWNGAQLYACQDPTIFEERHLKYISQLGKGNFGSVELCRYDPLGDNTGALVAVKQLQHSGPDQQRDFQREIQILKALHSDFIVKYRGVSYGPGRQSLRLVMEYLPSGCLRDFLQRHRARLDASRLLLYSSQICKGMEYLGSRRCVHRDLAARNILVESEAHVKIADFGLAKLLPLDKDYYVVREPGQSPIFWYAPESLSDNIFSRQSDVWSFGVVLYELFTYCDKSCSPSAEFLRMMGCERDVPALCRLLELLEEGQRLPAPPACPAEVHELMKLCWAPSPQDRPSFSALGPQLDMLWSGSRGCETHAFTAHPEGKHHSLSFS
Experimental: as §2

Lck = Lck (Homo sapiens, UniProt P06239); assay: Lck kinase activity, TR-FRET assay; settings: read-out: LCK (IC50)
Chain of Lck (P06239 whole entry, species assumed): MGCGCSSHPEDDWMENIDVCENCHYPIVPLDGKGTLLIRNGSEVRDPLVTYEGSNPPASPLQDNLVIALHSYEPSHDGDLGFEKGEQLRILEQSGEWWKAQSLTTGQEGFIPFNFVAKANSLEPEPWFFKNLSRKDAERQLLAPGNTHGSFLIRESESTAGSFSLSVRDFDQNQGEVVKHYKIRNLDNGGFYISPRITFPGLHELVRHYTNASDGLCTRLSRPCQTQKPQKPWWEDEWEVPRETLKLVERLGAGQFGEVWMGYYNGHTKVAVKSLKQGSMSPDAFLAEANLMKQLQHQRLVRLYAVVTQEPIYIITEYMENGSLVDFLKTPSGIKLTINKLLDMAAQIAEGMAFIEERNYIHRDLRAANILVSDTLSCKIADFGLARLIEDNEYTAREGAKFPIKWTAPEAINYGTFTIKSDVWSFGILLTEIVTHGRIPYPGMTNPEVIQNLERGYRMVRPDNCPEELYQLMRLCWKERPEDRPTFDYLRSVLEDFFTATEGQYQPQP
In short: as §1

Chain of Btk (Q06187 whole entry): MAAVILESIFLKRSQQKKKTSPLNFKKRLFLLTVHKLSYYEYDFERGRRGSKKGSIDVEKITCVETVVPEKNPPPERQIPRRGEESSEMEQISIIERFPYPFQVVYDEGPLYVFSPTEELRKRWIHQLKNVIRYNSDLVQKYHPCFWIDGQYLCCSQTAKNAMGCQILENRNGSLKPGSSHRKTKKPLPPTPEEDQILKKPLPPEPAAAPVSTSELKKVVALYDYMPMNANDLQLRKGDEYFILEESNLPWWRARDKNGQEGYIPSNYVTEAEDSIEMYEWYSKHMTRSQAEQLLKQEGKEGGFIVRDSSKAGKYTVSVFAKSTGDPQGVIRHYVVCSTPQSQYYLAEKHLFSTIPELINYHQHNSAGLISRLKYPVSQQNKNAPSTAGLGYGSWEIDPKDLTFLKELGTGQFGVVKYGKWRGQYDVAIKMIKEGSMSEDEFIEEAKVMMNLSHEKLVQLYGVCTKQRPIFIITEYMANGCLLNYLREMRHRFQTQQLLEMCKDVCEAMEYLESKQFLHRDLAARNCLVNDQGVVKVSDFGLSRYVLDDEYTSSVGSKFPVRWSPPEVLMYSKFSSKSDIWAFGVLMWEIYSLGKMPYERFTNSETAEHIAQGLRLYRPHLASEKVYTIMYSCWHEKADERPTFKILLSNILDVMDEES

| Structure (SMILES) | IC50 (Btk) [nM] | IC50 (EGFR) [nM] | IC50 (JAK3) [nM] | IC50 (Lck) [nM] |
| --- | --- | --- | --- | --- |
| Cc1ccnc(NC(=O)c2ccc(Oc3ccnc4[nH]nc(N[C@@H]5CCCN(C(=O)C6(C)CCNCC6)C5)c34)cc2)c1 [compound 104, 4-[(3-{[(3R)-1-(4-methylpiperidine-4-carbonyl)piperidin-3-yl]amino}-1H-pyrazolo[3,4-b]pyridin-4-yl)oxy]-N-(4-methylpyridin-2-yl)benzamide] | < 100 | 1000 to 10000 | > 10000 | 100 to 1000 |
| CCNC(=O)N1CC[C@@H](Nc2n[nH]c3nccc(Oc4ccc(C(=O)Nc5cc(C(F)(F)F)ccn5)cc4)c23)C1 [compound 188] | < 100 | 1000 to 10000 | > 10000 | 100 to 1000 |
| C=CC(=O)N1CC[C@@H](Nc2n[nH]c3nccc(Oc4ccc(Cl)cc4)c23)C1 [compound 1] | < 100 | 100 to 1000 | 1000 to 10000 | 1000 to 10000 |
| Cc1cnc(NC(=O)c2ccc(Oc3ccnc4[nH]nc(N[C@@H]5CCCN(C(=O)/C=C/CN(C)C6CC6)C5)c34)cc2)s1 [compound 142] | < 100 | 1000 to 10000 | 1000 to 10000 | 1000 to 10000 |
| Cc1ccnc(NC(=O)c2ccc(Oc3ccnc4[nH]nc(N[C@@H]5CCCN(C(=O)[C@@H]6CCOC6)C5)c34)cc2)c1 [compound 115, N-(4-methylpyridin-2-yl)-4-[(3-{[(3R)-1-[(3R)-oxolane-3-carbonyl]piperidin-3-yl]amino}-1H-pyrazolo[3,4-b]pyridin-4-yl)oxy]benzamide] | < 100 | > 10000 | > 10000 | 100 to 1000 |
| Cc1cc(Oc2ccccc2)ccc1Oc1ccnc2[nH]nc(N[C@@H]3CCCN(C(=O)/C=C/CN(C)C4CC4)C3)c12 [compound 169] | < 100 | 100 to 1000 | 1000 to 10000 | < 100 |
| CC#CC(=O)N1CC[C@@H](Nc2n[nH]c3nccc(Oc4ccc(C(=O)Nc5ncc(C)s5)cc4)c23)C1 [compound 181] | < 100 | 1000 to 10000 | > 10000 | 1000 to 10000 |
| CN(C)CCCC(=O)N1CCC[C@@H](Nc2n[nH]c3nccc(Oc4ccc(C(=O)Nc5cc(C(F)(F)F)ccn5)cc4)c23)C1 [compound 161] | < 100 | 100 to 1000 | > 10000 | < 100 |
| C=CC(=O)N1CCC[C@@H](Nc2n[nH]c3nccc(O[C@H]4CC[C@H](C(=O)Nc5ncc(C)s5)CC4)c23)C1 [compound 144] | 100 to 1000 | 1000 to 10000 | 100 to 1000 | > 10000 |
| Cc1ccnc(NC(=O)c2ccc(Oc3ccnc4[nH]nc(N[C@@H]5CCCN(C(=O)C6CCNCC6)C5)c34)cc2)c1 [compound 96, N-(4-methylpyridin-2-yl)-4-[(3-{[(3R)-1-(piperidin-4-carbonyl)piperidin-3-yl]amino}-1H-pyrazolo[3,4-b]pyridin-4-yl)oxy]benzamide] | < 100 | 1000 to 10000 | > 10000 | 100 to 1000 |
| Cc1ccnc(NC(=O)c2ccc(Oc3ccnc4[nH]nc(N[C@@H]5CCCN(C(=O)c6ccccc6)C5)c34)cc2)c1 [compound 109, 4-[(3-{[(3R)-1-benzoylpiperidin-3-yl]amino}-1H-pyrazolo[3,4-b]pyridin-4-yl)oxy]-N-(4-methylpyridin-2-yl)benzamide] | < 100 | > 10000 | > 10000 | 1000 to 10000 |
| Cc1cc(NC(=O)c2cccc(Nc3ccnc4[nH]nc(N[C@@H]5CCCN(C(=O)c6ccc(F)cc6)C5)c34)c2)ccc1C(C)C [compound 130, 3-[(3-{[(3R)-1-(4-fluorobenzoyl)piperidin-3-yl]amino}-1H-pyrazolo[3,4-b]pyridin-4-yl)amino]-N-[3-methyl-4-(propan-2-yl)phenyl]benzamide] | 100 to 1000 | – | > 10000 | > 10000 |
| Cc1cc(NC(=O)c2cccc(Nc3ccnc4[nH]nc(N[C@@H]5CCCN(C(=O)C6CC6)C5)c34)c2)ccc1C(C)C [compound 127, 3-[(3-{[(3R)-1-cyclopropanecarbonylpiperidin-3-yl]amino}-1H-pyrazolo[3,4-b]pyridin-4-yl)amino]-N-[3-methyl-4-(propan-2-yl)phenyl]benzamide] | 100 to 1000 | – | > 10000 | 1000 to 10000 |

More lines, now with the values ahead:

| IC50 (Btk) [nM] | IC50 (EGFR) [nM] | IC50 (JAK3) [nM] | IC50 (Lck) [nM] | Structure (SMILES) |
| --- | --- | --- | --- | --- |
| 100 to 1000 | 1000 to 10000 | > 10000 | – | COCCNc1n[nH]c2nccc(Oc3ccc(C(=O)Nc4cc(C(F)(F)F)ccn4)cc3)c12 [compound 236, 4-({3-[(2-methoxyethyl)amino]-1H-pyrazolo[3,4-b]pyridin-4-yl}oxy)-N-[4-(trifluoromethyl)pyridin-2-yl]benzamide] |
| < 100 | 1000 to 10000 | > 10000 | > 10000 | O=C(Nc1ccccn1)c1ccc(Oc2ccnc3[nH]nc(N[C@@H]4CCCN(C(=O)C5CC5)C4)c23)cc1 [compound 232, 4-[(3-{[(3R)-1-cyclopropanecarbonylpiperidin-3-yl]amino}-1H-pyrazolo[3,4-b]pyridin-4-yl)oxy]-N-(pyridin-2-yl)benzamide] |
| < 100 | 1000 to 10000 | > 10000 | < 100 | CN1CCC(C(=O)N2CCC[C@@H](Nc3n[nH]c4nccc(Oc5ccc(C(=O)Nc6cc(C(F)(F)F)ccn6)cc5)c34)C2)CC1 [compound 204, 4-[(3-{[(3R)-1-(1-methylpiperidine-4-carbonyl)piperidin-3-yl]amino}-1H-pyrazolo[3,4-b]pyridin-4-yl)oxy]-N-[4-(trifluoromethyl)pyridin-2-yl]benzamide] |
| < 100 | > 10000 | > 10000 | 1000 to 10000 | O=C(Nc1cc(C(F)(F)F)ccn1)c1ccc(Oc2ccnc3[nH]nc(N[C@@H]4CCN(C(=O)C5CC5)C4)c23)cc1 [compound 215, 4-[(3-{[(3R)-1-cyclopropanecarbonylpyrrolidin-3-yl]amino}-1H-pyrazolo[3,4-b]pyridin-4-yl)oxy]-N-[4-(trifluoromethyl)pyridin-2-yl]benzamide] |
| < 100 | 1000 to 10000 | > 10000 | – | CCNC(=O)N1CCC[C@@H](Nc2n[nH]c3nccc(Oc4ccc(Oc5ccccc5)cc4C)c23)C1 [compound 235, (3R)-N-ethyl-3-{[4-(2-methyl-4-phenoxyphenoxy)-1H-pyrazolo[3,4-b]pyridin-3-yl]amino}piperidine-1-carboxamide] |
| < 100 | – | > 10000 | 100 to 1000 | Cc1ccnc(NC(=O)c2ccc(Oc3ccnc4[nH]nc(N[C@@H]5CCCN(C(=O)c6nccs6)C5)c34)cc2)c1 [compound 241, (R)—N-(4-methylpyridin-2-yl)-4-(3-(1-(thiazole-2-carbonyl)piperidin-3-ylamino)-1H-pyrazolo[3,4-b]pyridin-4-yloxy)benzamide] |
| < 100 | – | > 10000 | 1000 to 10000 | Cc1ccnc(NC(=O)c2ccc(Oc3ccnc4[nH]nc(N[C@@H]5CCCN(C(=O)c6cccc(F)c6)C5)c34)cc2)c1 [compound 247, (R)-4-(3-(1-(3-fluorobenzoyl)piperidin-3-ylamino)-1H-pyrazolo[3,4-b]pyridin-4-yloxy)-N-(4-methylpyridin-2-yl)benzamide] |
| < 100 | – | > 10000 | 1000 to 10000 | Cc1ccc(C(=O)N2CCC[C@@H](Nc3n[nH]c4nccc(Oc5ccc(C(=O)Nc6cc(C)ccn6)cc5)c34)C2)cc1 [compound 245, (R)-4-(3-(1-(4-methylbenzoyl)piperidin-3-ylamino)-1H-pyrazolo[3,4-b]pyridin-4-yloxy)-N-(4-methylpyridin-2-yl)benzamide] |
| < 100 | – | > 10000 | 100 to 1000 | Cc1ccnc(NC(=O)c2ccc(Oc3ccnc4[nH]nc(N[C@@H]5CCCN(C(=O)c6ncc[nH]6)C5)c34)cc2)c1 [compound 242, (R)-4-(3-(1-(1H-imidazole-2-carbonyl)piperidin-3-ylamino)-1H-pyrazolo[3,4-b]pyridin-4-yloxy)-N-(4-methylpyridin-2-yl)benzamide] |
